Data published in patent publication US12448389B2, “BRM targeting compounds and associated methods of use” (Prelude Therapeutics Incorporated, priority 2020, dated 2025).

Experiments:
[1] = target: T1, SMARCA2 (Homo sapiens, UniProt P51531); assay: SMARCA2 protein degradation in NCIH520 cells by In Cell Western (ICW); format: cell-based; conditions: highest concentration 1 μM; for DC50: H520 cells, overnight incubation (maximum 18 hours), read-out: DC50 (SM2_H520): SMARCA2 degradation potency; for Dmax: NCI-H520, overnight incubation (maximum 18 hours), read-out: Dmax % (SM2_H520): maximum SMARCA2 degradation within the concentrations tested
T1 construct: endogenous in cells; host or cells: NCI-H520 (given as NCIH520 / NCIH1520 / H520)
T1 sequence (P51531 whole entry): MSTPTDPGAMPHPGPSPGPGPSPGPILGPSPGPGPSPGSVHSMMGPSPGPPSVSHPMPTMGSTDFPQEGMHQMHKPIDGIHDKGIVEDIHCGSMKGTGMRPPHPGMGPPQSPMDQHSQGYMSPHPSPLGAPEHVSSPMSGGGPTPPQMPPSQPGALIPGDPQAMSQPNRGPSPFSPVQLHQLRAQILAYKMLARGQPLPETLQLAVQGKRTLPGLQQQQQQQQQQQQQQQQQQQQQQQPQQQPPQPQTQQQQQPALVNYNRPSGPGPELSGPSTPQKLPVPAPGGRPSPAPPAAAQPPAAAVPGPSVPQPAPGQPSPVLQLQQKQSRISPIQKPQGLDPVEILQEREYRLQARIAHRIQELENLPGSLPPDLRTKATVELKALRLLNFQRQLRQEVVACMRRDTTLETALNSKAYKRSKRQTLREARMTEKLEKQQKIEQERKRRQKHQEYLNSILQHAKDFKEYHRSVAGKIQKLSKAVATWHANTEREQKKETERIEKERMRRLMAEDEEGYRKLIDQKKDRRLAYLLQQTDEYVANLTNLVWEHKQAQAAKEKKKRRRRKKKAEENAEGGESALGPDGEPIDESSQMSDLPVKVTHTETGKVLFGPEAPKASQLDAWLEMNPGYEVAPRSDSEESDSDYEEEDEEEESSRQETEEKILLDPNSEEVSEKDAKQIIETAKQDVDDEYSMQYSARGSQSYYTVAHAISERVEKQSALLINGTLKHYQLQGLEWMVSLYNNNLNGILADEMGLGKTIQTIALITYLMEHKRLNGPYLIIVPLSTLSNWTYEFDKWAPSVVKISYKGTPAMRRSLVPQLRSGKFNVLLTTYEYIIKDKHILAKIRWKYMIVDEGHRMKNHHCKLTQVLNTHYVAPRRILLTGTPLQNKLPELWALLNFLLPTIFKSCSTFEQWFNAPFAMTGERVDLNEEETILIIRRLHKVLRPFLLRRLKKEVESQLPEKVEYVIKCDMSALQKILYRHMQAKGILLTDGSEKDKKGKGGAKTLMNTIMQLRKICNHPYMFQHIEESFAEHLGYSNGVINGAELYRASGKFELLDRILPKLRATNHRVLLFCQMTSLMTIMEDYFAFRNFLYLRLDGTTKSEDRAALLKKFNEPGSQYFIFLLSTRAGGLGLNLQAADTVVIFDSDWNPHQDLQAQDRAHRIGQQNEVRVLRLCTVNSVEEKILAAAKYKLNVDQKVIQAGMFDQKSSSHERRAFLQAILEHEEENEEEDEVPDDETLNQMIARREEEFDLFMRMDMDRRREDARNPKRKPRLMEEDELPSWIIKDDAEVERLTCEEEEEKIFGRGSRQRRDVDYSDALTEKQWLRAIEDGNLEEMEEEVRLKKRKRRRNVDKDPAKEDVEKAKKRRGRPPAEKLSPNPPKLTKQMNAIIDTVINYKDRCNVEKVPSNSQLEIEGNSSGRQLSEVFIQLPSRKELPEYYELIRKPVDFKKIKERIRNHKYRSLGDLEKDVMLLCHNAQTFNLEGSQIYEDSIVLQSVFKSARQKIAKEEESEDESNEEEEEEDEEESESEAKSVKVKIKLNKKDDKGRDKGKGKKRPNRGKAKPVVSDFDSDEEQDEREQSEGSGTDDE
Protocol: (§1) Compounds were dissolved in DMSO to make 10 mM stock and 3-fold series dilutions were further conducted keeping the highest concentration 10 μM. NCIH11693 and NCIH1520 cells were maintained in PRMI 1640 medium (Corning Cellgro, Catalog #: 10-040-CV) supplemented with 10% v/v FBS (GE Healthcare, Catalog #: SH30910.03) by splitting 1:3 twice a week.
(§2) SMACRA2 and SMARCA4 Protein Degradation DC50 Values in NCIH1693 and NCIH520 Cells by in Cell Western (ICW) Analysis.
(§3) Cells were trypsinized and 30 thousand cells/well were seeded into 384-well plates and were allowed to grow for 1-2 hours at 37° C. Eight-point, 3-fold serial dilutions of compounds from 0.5 mM stocks were added to the cells (using digital Dispenser D300-Tecan, keeping highest concentration 1 μM and normalizing with DMSO at the highest dispensed volume). Plates were incubated at 37° C. for overnight (maximum 18 hours). Cells incubated with DMSO was used as a vehicle control.
(§4) To perform In Cell Western, medium was removed from all the wells leaving cells attached to the surface. After removing the medium, cells were fixed within the plates with 40 μL of 4% formaldehyde by incubating at room temperature for 30 minutes, and then permeabilized with wash buffer (1×PBS with 0.1% Triton X-100) by washing the plate 5 times with 50 μL/well. Before labeling with primary antibodies, cells were blocked with 30 μL/well of blocking buffer (Licor Odyssey blocking buffer PBS #927-40000) for 30 minutes at room temperature. To measure SMARCA2 or SMARCA4 proteins, cells were labeled with 20 μL/well of anti SMARCA2 or SMACRA4 antibodies (Cell Signaling BRM #11966S 1:800, Cell Signaling BRG #49360S 1:800) diluted in Li-Cor Odyssey blocking buffer-PBS #927-40000, followed by overnight incubation at 4° C.
(§5) The next day, plates were washed 5×5 minutes with 50 μL/well of washing buffer to remove all the excess primary antibody and then 20 μL from a mixture of secondary antibody and fluorescent DNA specific dye (Goat anti rabbit 1:500 IRDye-800CW #92632211, and DRAQ5™ 1:2000-#ab108410) was added to each well. Plates were incubated for 1 hour at room temperature with gentle rocking. Cells were washed 5 times with 50 μL/well wash buffer, followed by one last wash with DI water, followed by 10 mins drying at 37° C. oven before scanning. Plates were scanned using Li-Cor Odyssey CLx imaging system to acquire integrated intensities at 700 nm and 800 nm. SMARCA signals were normalized to total cell count and then these normalized values were used to calculate the percent degradation relative to DMSO control and maximum inhibition. DC50s were calculated by using the GraphPad Prism4 program based on sigmoidal dose response equation ([Inhibitor] vs. normalized response-Variable slope).
(§6) In Table 36, the DC50/Dmax% (SM2_H520) refers to SMARCA2 degradation potency/maximum SMARCA2 degradation within the concentrations in H520 cells and DC50/Dmax% (SM4_H520) refers to SMARCA4 degradation potency/maximum SMARCA4 degradation within the concentrations tested in H520 cells.

[2] = target: T2, SMARCA4 (Homo sapiens, UniProt P51532); assay: SMARCA4 protein degradation in NCIH520 cells by In Cell Western (ICW); format: cell-based; conditions: highest concentration 1 μM; for DC50: H520 cells, overnight incubation (maximum 18 hours), read-out: DC50 (SM4_H520): SMARCA4 degradation potency; for Dmax: NCI-H520, overnight incubation (maximum 18 hours), read-out: Dmax % (SM4_H520): maximum SMARCA4 degradation within the concentrations tested
T2 construct: endogenous in cells; host or cells: NCI-H520 (given as NCIH520 / NCIH1520 / H520)
T2 sequence (P51532 whole entry): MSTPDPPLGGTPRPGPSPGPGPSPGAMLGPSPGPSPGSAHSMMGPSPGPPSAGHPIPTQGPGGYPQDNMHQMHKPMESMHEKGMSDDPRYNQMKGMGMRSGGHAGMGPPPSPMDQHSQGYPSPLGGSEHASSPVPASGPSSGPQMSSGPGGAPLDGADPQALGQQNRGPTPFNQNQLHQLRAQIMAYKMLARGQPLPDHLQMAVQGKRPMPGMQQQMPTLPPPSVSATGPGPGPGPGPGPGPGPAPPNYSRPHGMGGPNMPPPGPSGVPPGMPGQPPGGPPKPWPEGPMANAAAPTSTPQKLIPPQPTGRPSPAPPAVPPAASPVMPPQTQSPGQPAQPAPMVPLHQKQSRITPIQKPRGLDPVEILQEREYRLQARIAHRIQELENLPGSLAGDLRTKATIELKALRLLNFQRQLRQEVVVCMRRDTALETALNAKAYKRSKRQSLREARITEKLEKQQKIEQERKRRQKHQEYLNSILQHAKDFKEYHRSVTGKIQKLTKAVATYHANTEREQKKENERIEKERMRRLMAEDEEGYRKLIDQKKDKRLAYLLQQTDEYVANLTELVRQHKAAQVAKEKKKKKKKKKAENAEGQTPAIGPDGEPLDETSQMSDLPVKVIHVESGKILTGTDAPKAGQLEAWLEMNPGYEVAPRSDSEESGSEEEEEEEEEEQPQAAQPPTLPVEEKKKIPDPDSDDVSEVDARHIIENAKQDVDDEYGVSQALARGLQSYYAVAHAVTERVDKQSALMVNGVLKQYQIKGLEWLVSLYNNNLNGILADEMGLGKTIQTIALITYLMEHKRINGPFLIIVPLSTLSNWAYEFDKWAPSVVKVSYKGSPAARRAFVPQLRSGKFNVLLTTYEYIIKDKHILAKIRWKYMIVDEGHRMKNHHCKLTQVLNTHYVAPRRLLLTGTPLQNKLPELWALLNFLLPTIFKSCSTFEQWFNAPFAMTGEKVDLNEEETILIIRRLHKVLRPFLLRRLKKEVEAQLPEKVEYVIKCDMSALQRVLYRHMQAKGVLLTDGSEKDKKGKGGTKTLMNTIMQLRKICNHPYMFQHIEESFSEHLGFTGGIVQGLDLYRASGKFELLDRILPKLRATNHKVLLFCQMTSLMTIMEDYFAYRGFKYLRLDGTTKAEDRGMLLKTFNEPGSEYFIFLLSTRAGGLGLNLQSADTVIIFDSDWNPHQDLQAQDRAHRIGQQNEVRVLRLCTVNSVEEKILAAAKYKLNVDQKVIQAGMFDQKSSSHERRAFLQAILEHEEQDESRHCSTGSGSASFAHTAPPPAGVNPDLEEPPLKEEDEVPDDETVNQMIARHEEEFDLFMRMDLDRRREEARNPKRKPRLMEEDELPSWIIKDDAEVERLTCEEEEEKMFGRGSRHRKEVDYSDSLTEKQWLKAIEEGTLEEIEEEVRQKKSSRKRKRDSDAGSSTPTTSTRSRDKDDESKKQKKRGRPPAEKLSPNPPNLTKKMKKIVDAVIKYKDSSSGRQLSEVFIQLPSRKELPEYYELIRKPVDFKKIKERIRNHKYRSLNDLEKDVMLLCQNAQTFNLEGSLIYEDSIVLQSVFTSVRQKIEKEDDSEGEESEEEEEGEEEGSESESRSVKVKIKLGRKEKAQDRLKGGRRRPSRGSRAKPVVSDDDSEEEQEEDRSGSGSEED
Protocol: as §1, §2, §3, §4, §5, §6

| SMILES | DC50 [1] [nM] | Dmax [1] [%] | DC50 [2] [nM] | Dmax [2] [%] |
| --- | --- | --- | --- | --- |
| O=C1CCC(N2Cc3cc(CCN4CCC(CCc5cnc(N6CCN7c8cc(-c9ccccc9O)nnc8NC[C@@H]7C6)nc5)CC4)ccc3C2=O)C(=O)N1 (stereo partly drawn) [Example 5, 3-(5-(2-(4-(2-(2-((R)-2-(2-hydroxyphenyl)-5,6,6a,7,9,10-hexahydro-8H-pyrazino[1′,2′:4,5]pyrazino[2,3-c]pyridazin-8-yl)pyrimidin-5-yl)ethyl)piperidin-1-yl)ethyl)-1-oxoisoindolin-2-yl)piperidine-2,6-dione] | < 100 | > 75 | < 100 | > 75 |
| O=C1CCC(N2Cc3cc(CCN4CC=C(c5cnc(N6CCN7c8cc(-c9ccccc9O)nnc8NC[C@H]7C6)nc5)CC4)ccc3C2=O)C(=O)N1 (stereo partly drawn) [Example 6, 3-(5-(2-(4-(2-((S)-2-(2-hydroxyphenyl)-5,6,6a,7,9,10-hexahydro-8H-pyrazino[1′,2′:4,5]pyrazino[2,3-c]pyridazin-8-yl)pyrimidin-5-yl)-3,6-dihydropyridin-1(2H)-yl)ethyl)-1-oxoisoindolin-2-yl)piperidine-2,6-dione] | < 100 | > 75 | < 100 | > 75 |
| O=C1CCC(N2Cc3cc(CCN4CCC(c5cnc(N6CCN7c8cc(-c9ccccc9O)nnc8NC[C@@H]7C6)nc5)CC4)ccc3C2=O)C(=O)N1 (stereo partly drawn) [Example 4, 3-(5-(2-(4-(2-((R)-2-(2-hydroxyphenyl)-5,6,6a,7,9,10-hexahydro-8H-pyrazino[1′,2′:4,5]pyrazino[2,3-c]pyridazin-8-yl)pyrimidin-5-yl)piperidin-1-yl)ethyl)-1-oxoisoindolin-2-yl)piperidine-2,6-dione] | < 100 | > 75 | < 100 | > 75 |
| O=C1CCC(N2Cc3cc(CCCN4CCC(c5cnc(N6CCN7c8cc(-c9ccccc9O)nnc8NC[C@@H]7C6)nc5)CC4)ccc3C2=O)C(=O)N1 (stereo partly drawn) [Example 2, 3-(5-(3-(4-(2-((R)-2-(2-hydroxyphenyl)-5,6,6a,7,9,10-hexahydro-8H-pyrazino[1′,2′:4,5]pyrazino[2,3-c]pyridazin-8-yl)pyrimidin-5-yl)piperidin-1-yl)propyl)-1-oxoisoindolin-2-yl)piperidine-2,6-dione] | < 100 | > 75 | < 100 | > 75 |
| O=C1CCC(n2c3ccc(CCCN4CCC(N5CCC(N6CCN7c8cc(-c9ccccc9O)nnc8NC[C@H]7C6)CC5)CC4)cc3c3cccnc32)C(=O)N1 (stereo partly drawn) [Example 20, 3-(6-(3-(4-((S)-2-(2-hydroxyphenyl)-5,6,6a,7,9,10-hexahydro-8H-pyrazino [1′,2′:4,5]pyrazino[2,3-c]pyridazin-8-yl)-[1,4′-bipiperidin]-1′-yl)propyl)-9H-pyrido[2,3-b]indol-9-yl)piperidine-2,6-dione] | < 100 | > 75 | < 100 | > 75 |
| O=C1CCC(N2Cc3ccc(N4CCN(CCN5CCC(N6CCN7c8cc(-c9ccccc9O)nnc8NC[C@H]7C6)CC5)CC4)cc3C2=O)C(=O)N1 (stereo partly drawn) [Example 17, 3-(6-(4-(2-(4-((S)-2-(2-hydroxyphenyl)-5,6,6a,7,9,10-hexahydro-8H-pyrazino [1′,2′:4,5]pyrazino[2,3-c]pyridazin-8-yl)piperidin-1-yl)ethyl)piperazin-1-yl)-1-oxoisoindolin-2-yl)piperidine-2,6-dione] | < 100 | > 75 | < 100 | > 75 |
| O=C1CCC(N2Cc3cc(CCCN4CCC(CCc5cnc(N6CCN7c8cc(-c9ccccc9O)nnc8NC[C@@H]7C6)nc5)CC4)ccc3C2=O)C(=O)N1 (stereo partly drawn) [Example 3, 3-(5-(3-(4-(2-(2-((R)-2-(2-hydroxyphenyl)-5,6,6a,7,9,10-hexahydro-8H-pyrazino[1′,2′:4,5]pyrazino[2,3-c]pyridazin-8-yl)pyrimidin-5-yl)ethyl)piperidin-1-yl)propyl)-1-oxoisoindolin-2-yl)piperidine-2,6-dione] | < 100 | > 75 | < 100 | > 75 |
| O=C1CCC(N2Cc3cc(CCN4CCC(OCCN5CCC(N6CCN7c8cc(-c9ccccc9O)nnc8NC[C@H]7C6)CC5)CC4)ccc3C2=O)C(=O)N1 (stereo partly drawn) [Example 8, 3-(5-(2-(4-(2-(4-((S)-2-(2-hydroxyphenyl)-5,6,6a,7,9,10-hexahydro-8H-pyrazino[1′,2′:4,5]pyrazino[2,3-c]pyridazin-8-yl)piperidin-1-yl)ethoxy)piperidin-1-yl)ethyl)-1-oxoisoindolin-2-yl)piperidine-2,6-dione] | < 100 | > 75 | < 100 | > 75 |
| O=C1CCC(N2Cc3cc(CN4CCC(c5cnc(N6CCN7c8cc(-c9ccccc9O)nnc8NC[C@H]7C6)nc5)CC4)ccc3C2=O)C(=O)N1 (stereo partly drawn) [Example 10, 3-(5-((4-(2-((S)-2-(2-hydroxyphenyl)-5,6,6a,7,9,10-hexahydro-8H-pyrazino[1′,2′:4,5]pyrazino[2,3-c]pyridazin-8-yl)pyrimidin-5-yl)piperidin-1-yl)methyl)-1-oxoisoindolin-2-yl)piperidine-2,6-dione] | < 100 | > 75 | < 100 | 50 to 75 |
| O=C1CCC(N2C(=O)c3ccc(N4CCN(CCN5CCC(N6CCN7c8cc(-c9ccccc9O)nnc8NC[C@H]7C6)C5)CC4)cc3C2=O)C(=O)N1 (stereo partly drawn) [Example 12, 2-(2,6-Dioxopiperidin-3-yl)-5-(4-(2-(3-((S)-2-(2-hydroxyphenyl)-5,6,6a,7,9,10-hexahydro-8H-pyrazino[1′,2′:4,5]pyrazino[2,3-c]pyridazin-8-yl)pyrrolidin-1-yl)ethyl)piperazin-1-yl) isoindoline-1,3-dione] | < 100 | > 75 | < 100 | 50 to 75 |
| O=C1CCC(N2Cc3cc(CN4CCC(OCCN5CCC(N6CCN7c8cc(-c9ccccc9O)nnc8NC[C@H]7C6)CC5)CC4)ccc3C2=O)C(=O)N1 (stereo partly drawn) [Example 9, 3-(5-((4-(2-(4-((S)-2-(2-hydroxyphenyl)-5,6,6a,7,9,10-hexahydro-8H-pyrazino[1′,2′:4,5]pyrazino[2,3-c]pyridazin-8-yl)piperidin-1-yl)ethoxy)piperidin-1-yl)methyl)-1-oxoisoindolin-2-yl)piperidine-2,6-dione] | < 100 | > 75 | < 100 | 50 to 75 |
| O=C1CCC(N2C(=O)c3ccc(N4CCN(CCCN5CCC(N6CCN7c8cc(-c9ccccc9O)nnc8NC[C@H]7C6)CC5)CC4)cc3C2=O)C(=O)N1 (stereo partly drawn) [Example 11, 2-(2,6-Dioxopiperidin-3-yl)-5-(4-(3-(4-((S)-2-(2-hydroxyphenyl)-5,6,6a,7,9,10-hexahydro-8H-pyrazino[1′,2′:4,5]1pyrazino[2,3-c]pyridazin-8-yl)piperidin-1-yl)propyl)piperazin-1-yl) isoindoline-1,3-dione] | < 100 | > 75 | < 100 | > 75 |
| O=C1CCC(n2c3ccc(CCCN4CCC(N5CCN6c7cc(-c8ccccc8O)nnc7NC[C@H]6C5)CC4)cc3c3cccnc32)C(=O)N1 (stereo partly drawn) [Example 19, 3-(6-(3-(4-((S)-2-(2-hydroxyphenyl)-5,6,6a,7,9,10-hexahydro-8H-pyrazino [1′,2′:4,5]pyrazino[2,3-c]pyridazin-8-yl)piperidin-1-yl)propyl)-9H-pyrido[2,3-b]indol-9-yl) piperidine-2,6-dione] | < 100 | > 75 | < 100 | > 75 |
